From patent US20230278972A1, “SUBSTITUTED HALOALKYL SULFONANILIDE HERBICIDES” (FMC Corporation, priority 2020, published 2023)

What was measured:
Assay type in all cases: in vivo
corn (Zea mays) = test: Test A postemergence, corn; settings: Postemergence, 0 to 100 scale (0 no effect, 100 complete control)
Outline: (§1)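 Pots: loam soil/sand blend. Pre: directed soil spray at planting. Post: plants 2–10 cm, 1–2 leaf stage. Formulation: non-phytotoxic solvent + surfactant.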

[1] = tested on: ragweed (common ragweed, Ambrosia artemisiifolia); test: Test A preemergence, ragweed; settings: Preemergence
Outline: as §1

[2] = tested on: barnyardgrass (Echinochloa crus-galli); test: Test A postemergence, barnyardgrass; settings: Postemergence, 0 to 100 scale (0 no effect, 100 complete control)
Outline: (§2)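 Compounds in non-phytotoxic solvent with surfactant. Soil: loam/sand. Preemergence via directed soil spray after seeding; postemergence on seedlings 2–10 cm, one- to two-leaf.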

[3] = tested on: Ryegrass, Italian (Italian ryegrass, Lolium multiflorum); test: Test A postemergence, Ryegrass, Italian; settings: Postemergence, 0 to 100 scale (0 no effect, 100 complete control)
Outline: as §1

[4] = tested on: barnyardgrass (Echinochloa crus-galli); test: Test A preemergence, barnyardgrass; settings: Preemergence
Outline: as §1

[5] = tested on: ragweed (common ragweed, Ambrosia artemisiifolia); test: Test A postemergence, ragweed; settings: Postemergence, 0 to 100 scale (0 no effect, 100 complete control)
Outline: as §1

kochia (Bassia scoparia) [6] = test: Test A preemergence, kochia; settings: Preemergence
Outline: as §1

[7] = tested on: pigweed (Amaranthus retroflexus); test: Test A preemergence, pigweed
Outline: as §2

[8] = tested on: pigweed (Amaranthus retroflexus); test: Test A postemergence, pigweed; settings: Postemergence, 0 to 100 scale (0 no effect, 100 complete control)
Outline: as §1

[9] = tested on: Foxtail, Giant (giant foxtail, Setaria faberi); test: Test A postemergence, Foxtail, Giant; settings: Postemergence, 0 to 100 scale (0 no effect, 100 complete control)
Outline: as §1

kochia (Bassia scoparia) [10] = test: Test A postemergence, kochia; settings: Postemergence, 0 to 100 scale (0 no effect, 100 complete control)
Outline: as §1

[11] = tested on: galium (catchweed bedstraw, Galium aparine); test: Test A postemergence, galium; settings: Postemergence, 0 to 100 scale (0 no effect, 100 complete control)
Outline: as §2

[12] = tested on: Ryegrass, Italian (Italian ryegrass, Lolium multiflorum); test: Test A preemergence, Ryegrass, Italian; settings: Preemergence
Outline: as §1

[13] = tested on: blackgrass (Alopecurus myosuroides); test: Test A postemergence, blackgrass; settings: Postemergence, 0 to 100 scale (0 no effect, 100 complete control)
Outline: as §1

[14] = tested on: wheat (Triticum aestivum); test: Test A postemergence, wheat; settings: Postemergence, 0 to 100 scale (0 no effect, 100 complete control)
Outline: as §2

[15] = tested on: Foxtail, Giant (giant foxtail, Setaria faberi); test: Test A preemergence, Foxtail, Giant; settings: Preemergence
Outline: as §1

[16] = 500 g ai/ha, visual injury approx. 10 days
[17] = 125 g ai/ha, visual injury, 0 to 100 scale (0 no effect, 100 complete control), approx. 10 days
[18] = 500 g ai/ha, visual injury on 0 to 100 scale (0 no effect, 100 complete control), approximately 10 days

SMILES: Cc1cc(C)c(N2CC3(CCCCC3)OC2=O)cc1NS(=O)(=O)C(F)(F)F [Compound 279]
- Plant response rating, Corn (corn (Zea mays); 125 g ai/ha): 20
- Plant response rating, Corn (corn (Zea mays); [16]): 20
- Plant response rating, Ragweed [1, 17]: 100
- Ragweed plant response rating [1, 18]: 100
- Plant response rating, Barnyardgrass ([2]; 125 g ai/ha): 20
- Plant response rating, Barnyardgrass [2, 16]: 80
- Plant response rating, Ryegrass, Italian ([3]; 125 g ai/ha): 0
- Plant response rating, Ryegrass, Italian [3, 16]: 60
- Plant response rating, Barnyardgrass [4, 17]: 100
- Barnyardgrass plant response rating [4, 18]: 100
- Plant response rating, Ragweed ([5]; 125 g ai/ha): 80
- Plant response rating, Ragweed [5, 16]: 90
- Plant response rating, Kochia (kochia (Bassia scoparia) [6]; [17]): 80
- Kochia plant response rating (kochia (Bassia scoparia) [6]; [18]): 90
- Plant response rating, Pigweed [7, 17]: 90
- Pigweed plant response rating [7, 18]: 100
- Plant response rating, Pigweed ([8]; 125 g ai/ha): 50
- Plant response rating, Pigweed [8, 16]: 80
- Plant response rating, Foxtail, Giant ([9]; 125 g ai/ha): 10
- Plant response rating, Foxtail, Giant [9, 16]: 30
- Plant response rating, Kochia (kochia (Bassia scoparia) [10]; 125 g ai/ha): 40
- Plant response rating, Kochia (kochia (Bassia scoparia) [10]; [16]): 50
- Plant response rating, Galium ([11]; 125 g ai/ha): 90
- Plant response rating, Galium [11, 16]: 90
- Plant response rating, Ryegrass, Italian [12, 17]: 90
- Ryegrass, Italian plant response rating [12, 18]: 100
- Plant response rating, Blackgrass ([13]; 125 g ai/ha): 0
- Plant response rating, Blackgrass [13, 16]: 20
- Plant response rating, Wheat ([14]; 125 g ai/ha): 0
- Plant response rating, Wheat [14, 16]: 70
- Plant response rating, Foxtail, Giant [15, 17]: 100
- Foxtail, Giant plant response rating [15, 18]: 100
